Experimental data as given in US6355799B1, “Substituted benzene compounds, process for their preparation, and herbicidal and defoliant compositions containing them” (ISK Americas Incorporated, priority 1997, dated 2002).

Key:
Type in all cases: in vivo
[1] = tested on: green foxtail (Setaria viridis, SETVI); assay: Pre-emerge test, greenhouse herbicide activity screening; conditions: pre-emerge, phytotoxicity rating 0-100 at 14 days after application
Excerpt: (§1) A standard greenhouse herbicide activity screening system was used to evaluate the herbicidal efficacy and crop safety of these test compounds. Seven broadleaf weed species including redroot pigweed (Amaranthus retroflexus, AMARE, velvetleaf (Abutilon theophrasti, ABUTH), sicklepod (Cassia obtusifolia, CASOB), ivyleaf morningglory (Ipomoea hederacea, IPOHE), lambsquarters (Chenopodium album, CHEAL), common ragweed (Ambrosia artemisizfolia L., AMBEL), and cocklebur (Xanthium strumarium, XANST) were used as test species. Four grass weed species including green foxtail (Setaria viridis, SETVI), barnyardgrass (Echinochloa crus-galli, ECHCG), johnsongrass (Sorghum halepense, SORHA), and large crabgrass (Digitaria sanguinalis, DIGSA) were also used. In addition, three crop species, field corn (Zea mays L., var. Dekalb 535, CORN), soybean (Glycine max L., var. Pella 86, SOY), and is upland rice (Oryza sp., var. Tebonnet, RICE) were included.
(§2) All plants were grown in 10 cm square plastic pots which were filled with a sandy loam soil mix. For pre-emerge tests, seeds were planted one day prior to application of the test compounds. For post-emerge tests, seeds were planted 8-21 days prior to the test to allow emergence and good foliage development prior to application of the test substances. At the time of the post-emerge application, plants of all species were usually at the 2-3 leaf stage of development.
(§3) All test compounds Were dissolved in acetone and applied to the test units in a volume of 187 l /ha. Test materials were applied at rates ranging from 15 g ai/ha to 1000 g ai/ha using a track sprayer equipped with a TJ8001E even flow flat fan spray nozzle. Plants were arranged on a shelf so that the top of the canopy (post-emerge) or top of the soil surface (pre-emerge) was 40-45 cm below the nozzle. Pressurized air was used to force the test solution through the nozzle as it was mechanically advanced (via electrically driven chain drive) over the top of all test plants/pots. This application simulates a typical commercial field herbicide application.
(§4) In the post-emerge test, a commercial non-ionic surfactant was also included (0.25% v/v) to enhance wetting of the leaf surfaces of target plants. Immediately after application, test units of the pre-emerge applications were watered at the soil surface to incorporate the test materials. Subsequently, these test units were bottom-watered. Post-emerge test units were always bottom-watered.
(§5) At 14 days after application of the test materials, phytotoxicity ratings were recorded. A rating scale of 0-100 was used as previously described in Research Methods in Weed Science, 2nd edition, B. Truelove, Ed., Southern Weed Science Society, Auburn University, Auburn, Ala. 1977. Briefly, “0” corresponds to no damage and “100” corresponds to complete death of all plants in the test unit. This scale was used both to determine efficacy against weed species and damage to crop species. Herbicide activity data for various compounds of this invention, which are shown by compound No. in Tables 1-8, are shown in Tables 11 and 12.

[2] = tested on: sicklepod (Cassia obtusifolia, CASOB); assay: as above; conditions: pre-emerge, phytotoxicity rating 0-100 at 14 days after application
Excerpt: as §1, §2, §3, §4, §5

[3] = tested on: lambsquarters (Chenopodium album, CHEAL); assay: as above; conditions: pre-emerge, phytotoxicity rating 0-100 at 14 days after application
Excerpt: as §1, §2, §3, §4, §5

[4] = tested on: ivyleaf morningglory (Ipomoea hederacea, IPOHE); assay: as above; conditions: pre-emerge, phytotoxicity rating 0-100 at 14 days after application
Excerpt: as §1, §2, §3, §4, §5

[5] = tested on: barnyardgrass (Echinochloa crus-galli, ECHCG); assay: as above; conditions: pre-emerge, phytotoxicity rating 0-100 at 14 days after application
Excerpt: as §1, §2, §3, §4, §5

[6] = tested on: velvetleaf (Abutilon theophrasti, ABUTH); assay: as above; conditions: pre-emerge, phytotoxicity rating 0-100 at 14 days after application
Excerpt: as §1, §2, §3, §4, §5

[7] = tested on: large crabgrass (Digitaria sanguinalis, DIGSA); assay: as above; conditions: pre-emerge, phytotoxicity rating 0-100 at 14 days after application
Excerpt: as §1, §2, §3, §4, §5

[8] = tested on: upland rice (Oryza sp., var. Tebonnet, RICE); assay: Post-emerge test, crop safety; conditions: post-emerge, crop damage rating 0-100 at 14 days after application
In short: (§6)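 Applied at 15–1000 g ai/ha from acetone in 187 l/ha spray volume. Post-emergence applications included 0.25% v/v non-ionic surfactant and reached plants sown 8–21 days before. Pre-emergence applications were incorporated by surface watering. Efficacy or crop damage was rated on a 0–100 scale after 14 days.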

[9] = tested on: field corn (Zea mays L., var. Dekalb 535, CORN); assay: Post-emerge test, crop safety; conditions: post-emerge, crop damage rating 0-100 at 14 days after application
In short: as §6

[10] = tested on: upland rice (Oryza sp., var. Tebonnet, RICE); assay: Pre-emerge test, crop safety; conditions: crop damage, pre-emerge, phytotoxicity rating 0-100 at 14 days after application
In short: (§7)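 Rating: 0–100 visual injury, 14 DAA. Application: acetone, 187 l/ha, 15–1000 g ai/ha, flat-fan track sprayer with nozzle 40–45 cm above soil or canopy. Post-emerge runs used 0.25% v/v surfactant on 2–3 leaf plants.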

[11] = tested on: field corn (Zea mays L., var. Dekalb 535, CORN); assay: Pre-emerge test, crop safety; conditions: crop damage, pre-emerge, phytotoxicity rating 0-100 at 14 days after application
In short: as §7

[12] = tested on: green foxtail (Setaria viridis, SETVI); assay: Post-emerge test, greenhouse herbicide activity screening; conditions: post-emerge, phytotoxicity rating 0-100 at 14 days after application
Excerpt: as §1, §2, §3, §4, §5

[13] = tested on: sicklepod (Cassia obtusifolia, CASOB); assay: as above; conditions: post-emerge, phytotoxicity rating 0-100 at 14 days after application
Excerpt: as §1, §2, §3, §4, §5

[14] = tested on: redroot pigweed (Amaranthus retroflexus, AMARE); assay: as above; conditions: post-emerge, phytotoxicity rating 0-100 at 14 days after application
Excerpt: as §1, §2, §3, §4, §5

[15] = tested on: lambsquarters (Chenopodium album, CHEAL); assay: as above; conditions: post-emerge, phytotoxicity rating 0-100 at 14 days after application
Excerpt: as §1, §2, §3, §4, §5

[16] = tested on: ivyleaf morningglory (Ipomoea hederacea, IPOHE); assay: as above; conditions: post-emerge, phytotoxicity rating 0-100 at 14 days after application
Excerpt: as §1, §2, §3, §4, §5

[17] = tested on: barnyardgrass (Echinochloa crus-galli, ECHCG); assay: as above; conditions: post-emerge, phytotoxicity rating 0-100 at 14 days after application
Excerpt: as §1, §2, §3, §4, §5

[18] = tested on: velvetleaf (Abutilon theophrasti, ABUTH); assay: as above; conditions: post-emerge, phytotoxicity rating 0-100 at 14 days after application
Excerpt: as §1, §2, §3, §4, §5

[19] = tested on: large crabgrass (Digitaria sanguinalis, DIGSA); assay: as above; conditions: post-emerge, phytotoxicity rating 0-100 at 14 days after application
Excerpt: as §1, §2, §3, §4, §5

[20] = tested on: redroot pigweed (Amaranthus retroflexus, AMARE); assay: Pre-emerge test, greenhouse herbicide activity screening; conditions: pre-emerge, phytotoxicity rating 0-100 at 14 days after application
In short: as §7

Q: With `Cc1cc(C)c(COC(=O)Nc2c(C)c(Cl)cc(F)c2-n2c(=O)cc(C(F)(F)F)n(C)c2=O)c(C)c1` [4-69] as the compound, how does the “Pre-emerge Herbicidal Activity SETVI” value ([1]; rate 63 g ai/ha) read?
A: The value was 95.

Q: And the “Pre-emerge Herbicidal Activity SETVI” value ([1]; rate 250 g ai/ha)?
A: The value was 100.

Q: And the “Pre-emerge Herbicidal Activity CASOB” value ([2]; rate 63 g ai/ha)?
A: Its value is 0.

Q: And the “Pre-emerge Herbicidal Activity CASOB” value ([2]; rate 250 g ai/ha)?
A: Its value is 50.

Q: And the “Pre-emerge Herbicidal Activity CHEAL” value ([3]; rate 63 g ai/ha)?
A: The value was 70.

Q: And the “Pre-emerge Herbicidal Activity CHEAL” value ([3]; rate 250 g ai/ha)?
A: The value was 90.

Q: What about the “Pre-emerge Herbicidal Activity IPOHE” value ([4]; rate 63 g ai/ha) of the same compound?
A: The value was 0.

Q: And the “Pre-emerge Herbicidal Activity IPOHE” value ([4]; rate 250 g ai/ha)?
A: The value was 40.

Q: And the “Pre-emerge Herbicidal Activity ECHCG” value ([5]; rate 63 g ai/ha)?
A: The value was 30.

Q: What about the “Pre-emerge Herbicidal Activity ECHCG” value ([5]; rate 250 g ai/ha) of the same compound?
A: The value was 70.

Q: What about the “Pre-emerge Herbicidal Activity ABUTH” value ([6]; rate 63 g ai/ha) of the same compound?
A: The value was 80.

Q: What about the “Pre-emerge Herbicidal Activity ABUTH” value ([6]; rate 250 g ai/ha) of the same compound?
A: The value was 90.

Q: And the “Pre-emerge Herbicidal Activity DIGSA” value ([7]; rate 63 g ai/ha)?
A: Its value is 100.

Q: What about the “Pre-emerge Herbicidal Activity DIGSA” value ([7]; rate 250 g ai/ha) of the same compound?
A: The value was 100.

Q: And the “Post-emerge Herbicidal Activity RICE” value ([8]; 63 g ai/ha)?
A: Its value is 0.

Q: What about the “Post-emerge Herbicidal Activity RICE” value ([8]; 250 g ai/ha) of the same compound?
A: The value was 40.

Q: What about the “Post-emerge Herbicidal Activity CORN” value ([9]; 63 g ai/ha) of the same compound?
A: Its value is 5.

Q: What about the “Post-emerge Herbicidal Activity CORN” value ([9]; 250 g ai/ha) of the same compound?
A: The value was 35.

Q: And the “Pre-emerge Herbicidal Activity RICE” value ([10]; rate 63 g ai/ha)?
A: The value was 10.

Q: And the “Pre-emerge Herbicidal Activity RICE” value ([10]; rate 250 g ai/ha)?
A: The value was 30.

Q: And the “Pre-emerge Herbicidal Activity CORN” value ([11]; rate 63 g ai/ha)?
A: The value was 0.

Q: And the “Pre-emerge Herbicidal Activity CORN” value ([11]; rate 250 g ai/ha)?
A: Its value is 0.

Q: And the “Post-emerge Herbicidal Activity SETVI” value ([12]; 63 g ai/ha)?
A: Its value is 40.

Q: What about the “Post-emerge Herbicidal Activity SETVI” value ([12]; 250 g ai/ha) of the same compound?
A: The value was 80.

Q: And the “Post-emerge Herbicidal Activity CASOB” value ([13]; 63 g ai/ha)?
A: Its value is 40.

Q: And the “Post-emerge Herbicidal Activity CASOB” value ([13]; 250 g ai/ha)?
A: Its value is 70.

Q: And the “Post-emerge Herbicidal Activity AMARE” value ([14]; 63 g ai/ha)?
A: Its value is 100.

Q: And the “Post-emerge Herbicidal Activity AMARE” value ([14]; 250 g ai/ha)?
A: The value was 100.

Q: And the “Post-emerge Herbicidal Activity CHEAL” value ([15]; 63 g ai/ha)?
A: Its value is 90.

Q: What about the “Post-emerge Herbicidal Activity CHEAL” value ([15]; 250 g ai/ha) of the same compound?
A: Its value is 100.

Q: What about the “Post-emerge Herbicidal Activity IPOHE” value ([16]; 63 g ai/ha) of the same compound?
A: Its value is 70.

Q: And the “Post-emerge Herbicidal Activity IPOHE” value ([16]; 250 g ai/ha)?
A: Its value is 100.

Q: What about the “Post-emerge Herbicidal Activity ECHCG” value ([17]; 63 g ai/ha) of the same compound?
A: Its value is 20.

Q: And the “Post-emerge Herbicidal Activity ECHCG” value ([17]; 250 g ai/ha)?
A: Its value is 40.

Q: And the “Post-emerge Herbicidal Activity ABUTH” value ([18]; 63 g ai/ha)?
A: The value was 100.

Q: What about the “Post-emerge Herbicidal Activity ABUTH” value ([18]; 250 g ai/ha) of the same compound?
A: The value was 100.

Q: What about the “Post-emerge Herbicidal Activity DIGSA” value ([19]; 63 g ai/ha) of the same compound?
A: The value was 20.

Q: And the “Post-emerge Herbicidal Activity DIGSA” value ([19]; 250 g ai/ha)?
A: The value was 50.

Q: What about the “Pre-emerge Herbicidal Activity AMARE” value ([20]; rate 63 g ai/ha) of the same compound?
A: The value was 30.

Q: And the “Pre-emerge Herbicidal Activity AMARE” value ([20]; rate 250 g ai/ha)?
A: The value was 80.
